In patent US12655174B2, “Adenosine A3 receptor agonists, preparation methods and uses thereof” (ZHEJIANG VIMGREEN PHARMACEUTICALS, LTD., priority 2020, dated 2026):

Test: Pharmacokinetic test of compound in SD rat
Assay type: in vivo
Conditions: SD rats, intragastric administration (IG), cassette dosing
Protocol: Example 28: Pharmacokinetic Test of Compound in SD Rat
The animal species used in this experiment were SD rats. There were 3 animals per group. The rats were dosed in cassette format, i.e., multiple (1-6) different compounds were dosed simultaneously to the same group of the SD rats. The vehicle used for the drug was 5% DMSO+5% Solutl+90% ([…] methylcellulose M450), and the administration route was intragastric administration (IG).

Row | SMILES | AUC_D
1 | [2H]C([2H])([2H])NC(=O)[C@H]1O[C@@H](n2cnc3c(NCc4cscn4)nc(-c4cncc(Cl)c4)nc32)[C@H](O)[C@@H]1O [compound 253, (2S,3S,4R,5R)-5-(2-(5-chloropyridin-3-yl)-6-((thiazol-4-ylmethyl)amino)-9H-purin-9-yl)-3,4-dihydroxyl-N-(methyl-d3)tetrahydrofuran-2-carboxamide] | 299.00 kg·ng·h/mL/mg
2 | [2H]C([2H])([2H])NC(=O)[C@H]1O[C@@H](n2cnc3c(NCc4cccc(C)n4)nc(-c4cncc(Cl)c4)nc32)[C@H](O)[C@@H]1O [compound 271, (2S,3S,4R,5R)-5-(2-(5-chloropyridin-3-yl)-6-((6-methylpyridin-2-yl)methylamino)-9H-purin-9-yl)-3,4-dihydroxyl-N-(methyl-d3)-tetrahydrofuran-2-carboxamide] | 1131.18 kg·ng·h/mL/mg
3 | CNC(=O)[C@H]1O[C@@H](n2cnc3c(NCc4ccccc4)nc(-c4ccoc4)nc32)[C@H](O)[C@@H]1O [compound 149, (2S,3S,4R,5R)-5-(6-(benzylamino)-2-(furan-3-yl)-9H-purin-9-yl)-3,4-dihydroxyl-N-methyltetrahydrofuran-2-carboxamide] | 337.00 kg·ng·h/mL/mg
4 | [2H]C([2H])([2H])NC(=O)[C@H]1O[C@@H](n2cnc3c(NCc4ccc(OC)cc4)nc(-c4cncc(Cl)c4)nc32)[C@H](O)[C@@H]1O [compound 267, (2S,3S,4R,5R)-5-(2-(5-chloropyridin-3-yl)-6-(4-methoxybenzylamino)-9H-purin-9-yl)-3,4-dihydroxyl-N-(methyl-d3)-tetrahydrofuran-2-carboxamide] | 82.98 kg·ng·h/mL/mg
5 | CNC(=O)[C@H]1O[C@@H](n2cnc3c(NCc4ccccn4)nc(-c4cncc(C)c4)nc32)[C@H](O)[C@@H]1O [compound 69, (2S,3S,4R,5R)-3,4-dihydroxyl-N-methyl-5-(2-(5-methylpyridin-3-yl)-6-((pyridin-2-ylmethyl)amino)-9H-purin-9-yl)tetrahydrofuran-2-carboxamide] | 360.90 kg·ng·h/mL/mg
6 | CNC(=O)[C@H]1O[C@@H](n2cnc3c(NCc4ccccc4)nc(-c4cncc(F)c4)nc32)[C@H](O)[C@@H]1O [compound 153, (2S,3S,4R,5R)-5-(6-(benzylamino)-2-(5-fluoropyridin-3-yl)-9H-purin-9-yl)-3,4-dihydroxyl-N-methyltetrahydrofuran-2-carboxamide] | 829.00 kg·ng·h/mL/mg
7 | [2H]C([2H])([2H])NC(=O)[C@H]1O[C@@H](n2cnc3c(NCc4ccccc4)nc(-c4cncc(Cl)c4)nc32)[C@H](O)[C@@H]1O [compound 15, (2S,3S,4R,5R)-5-(6-(benzylamino)-2-(5-chloropyridin-3-yl)-9H-purin-9-yl)-3,4-dihydroxyl-N-(methyl-d3)-tetrahydrofuran-2-formamide] | 807.78 kg·ng·h/mL/mg
8 | [2H]C([2H])([2H])NC(=O)[C@H]1O[C@@H](n2cnc3c(NCc4cc(C)ccn4)nc(-c4cncc(Cl)c4)nc32)[C@H](O)[C@@H]1O [compound 215] | 785.90 kg·ng·h/mL/mg
9 | CCNC(=O)[C@H]1O[C@@H](n2cnc3c(NC)nc(-c4ccc(OC)nc4)nc32)[C@H](O)[C@@H]1O [compound 58, (2S,3S,4R,5R)-N-ethyl-3,4-dihydroxyl-5-(2-(6-methoxypyridin-3-yl)-6-(methylamino)-9H-purin-9-yl)tetrahydrofuran-2-carboxamide] | 110.00 kg·ng·h/mL/mg
10 | CNC(=O)[C@H]1O[C@@H](n2cnc3c(NCc4ccccc4)nc(-c4cncc(Cl)c4)nc32)[C@H](O)[C@@H]1O [compound 150, (2S,3S,4R,5R)-5-(6-(benzylamino)-2-(5-chloropyridin-3-yl)-9H-purin-9-yl)-3,4-dihydroxyl-N-methyltetrahydrofuran-2-carboxamide] | 1821.60 kg·ng·h/mL/mg
11 | [2H]C([2H])([2H])NC(=O)[C@H]1O[C@@H](n2cnc3c(N[C@@H](C)c4ccccc4)nc(-c4cncc(Cl)c4)nc32)[C@H](O)[C@@H]1O [compound 252] | 532.00 kg·ng·h/mL/mg
12 | CNC(=O)[C@H]1O[C@@H](n2cnc3c(NCc4cccc(OC)c4)nc(-c4cncc(Cl)c4)nc32)[C@H](O)[C@@H]1O (stereo in doubt) [compound 213, (2S,3S,4R,5S)-5-(2-(5-chloropyridin-3-yl)-6-((3-methoxybenzyl)amino)-9/-purin-9-yl)-3,4-dihydroxyl-N-methyltetrahydrofuran-2-carboxamide] | 360.90 kg·ng·h/mL/mg
13 | [2H]C([2H])([2H])NC(=O)[C@H]1O[C@@H](n2cnc3c(NCc4cc(Cl)cc(Cl)c4)nc(-c4cncc(Cl)c4)nc32)[C@H](O)[C@@H]1O [compound 240, (2S,3S,4R,5R)-5-(2-(5-chloropyridin-3-yl)-6-(3,5-dichlorobenzylamino)-9H-purin-9-yl)-3,4-dihydroxyl-N-(methyl-d3)-tetrahydrofuran-2-carboxamide] | 1024.58 kg·ng·h/mL/mg
14 | [2H]C([2H])([2H])NC(=O)[C@H]1O[C@@H](n2cnc3c(NCc4ccccc4)nc(-c4cncc(C#N)c4)nc32)[C@H](O)[C@@H]1O [compound 19, (2S,3S,4R,5R)-5-(6-(benzylamino)-2-(5-cyanopyridin-3-yl)-9H-purin-9-yl)-3,4-dihydroxyl-N-(methyl-d3)-tetrahydrofuran-2-formamide] | 74.00 kg·ng·h/mL/mg
15 | [2H]C([2H])([2H])NC(=O)[C@H]1O[C@@H](n2cnc3c(NCc4cocn4)nc(-c4cncc(Cl)c4)nc32)[C@H](O)[C@@H]1O [compound 257, (2S,3S,4R,5R)-5-(2-(5-chloropyridin-3-yl)-6-((oxazol-4-ylmethyl)amino)-9H-purin-9-yl)-3,4-dihydroxyl-N-(methyl-d3)tetrahydrofuran-2-carboxamide] | 96.00 kg·ng·h/mL/mg
16 | CNC(=O)[C@H]1O[C@@H](n2cnc3c(NCc4cccc(C(F)(F)F)c4)nc(-c4cncc(OC)c4)nc32)[C@H](O)[C@@H]1O [compound 181, (2S,3S,4R,5R)-5-(6-(3-(trifluoromethyl)benzylamino)-2-(5-methoxypyridin-3-yl)-9/-purin-9-yl)-3,4-dihydroxyl-N-methyl-tetrahydrofuran-2-formamide] | 72.67 kg·ng·h/mL/mg
17 | [2H]C([2H])([2H])NC(=O)[C@H]1O[C@@H](n2cnc3c(NCC(F)(F)F)nc(-c4cncc(Cl)c4)nc32)[C@H](O)[C@@H]1O [compound 202] | 138.00 kg·ng·h/mL/mg
18 | [2H]C([2H])([2H])NC(=O)[C@H]1O[C@@H](n2cnc3c(NCc4cc(F)cc(Cl)c4)nc(-c4cncc(Cl)c4)nc32)[C@H](O)[C@@H]1O [compound 241, (2S,3S,4R,5R)-5-(6-(3-chloro-5-fluorobenzylamino)-2-(5-chloropyridin-3-yl)-9H-purin-9-yl)-3,4-dihydroxyl-N-(methyl-d3)-tetrahydrofuran-2-carboxamide] | 440.67 kg·ng·h/mL/mg
19 | [2H]C([2H])([2H])NC(=O)[C@H]1O[C@@H](n2cnc3c(NCc4cccc(I)c4)ncnc32)[C@H](O)[C@@H]1O [compound 1, (2S,3S,4R,5R)-5-(6-(3-iodobenzylamino)-9H-purin-9-yl)-3,4-dihydroxyl-N-(methyl-d3)-tetrahydrofuran-2-formamide] | 343.50 kg·ng·h/mL/mg
20 | CCNC(=O)[C@H]1O[C@@H](n2cnc3c(NC)nc(-c4ccsc4)nc32)[C@H](O)[C@@H]1O [compound 77, (2S,3S,4R,5R)-N-ethyl-3,4-dihydroxyl-5-(6-(methylamino)-2-(thiophen-3-yl)-9H-purin-9-yl)tetrahydrofuran-2-carboxamide] | 81.00 kg·ng·h/mL/mg
21 | CCNC(=O)[C@H]1O[C@@H](n2cnc3c(N)nc(-c4cncc(Cl)c4)nc32)[C@H](O)[C@@H]1O [compound 324, (2S,3S,4R,5R)-5-(6-amino-2-(5-chloropyridin-3-yl)-9H-purin-9-yl)-N-ethyl-3,4-dihydroxyltetrahydrofuran-2-formamide] | 78.00 kg·ng·h/mL/mg
22 | [2H]C([2H])([2H])NC(=O)[C@H]1O[C@@H](n2cnc3c(NCc4ccc(C(F)(F)F)cc4)nc(-c4cncc(Cl)c4)nc32)[C@H](O)[C@@H]1O [compound 165, (2S,3S,4R,5R)-5-(6-(4-(trifluoromethyl)benzylamino)-2-(5-chloropyridin-3-yl)-9H-purin-9-yl)-3,4-dihydroxyl-N-(methyl-d3)-tetrahydrofuran-2-formamide] | 564.70 kg·ng·h/mL/mg
23 | [2H]C([2H])([2H])NC(=O)[C@H]1O[C@@H](n2cnc3c(NCc4cccc(C#N)c4)nc(-c4cncc(Cl)c4)nc32)[C@H](O)[C@@H]1O [compound 221, (2S,3S,4R,5R)-5-(2-(5-chloropyridin-3-yl)-6-((3-cyanobenzyl)amino)-9H-purin-9-yl)-3,4-dihydroxyl-N-(methyl-d3)-tetrahydrofuran-2-carboxamide] | 278.77 kg·ng·h/mL/mg
24 | [2H]C([2H])([2H])NC(=O)[C@H]1O[C@@H](n2cnc3c(NCc4cccc(I)c4)nc(-c4cncc(Cl)c4)nc32)[C@H](O)[C@@H]1O [compound 250, (2S,3S,4R,5R)-5-(2-(5-chloropyridin-3-yl)-6-((3-iodobenzyl)amino)-9H-purin-9-yl)-3,4-dihydroxyl-N-(methyl-d3)tetrahydrofuran-2-carboxamide] | 2137.00 kg·ng·h/mL/mg
25 | [2H]C([2H])([2H])NC(=O)[C@H]1O[C@@H](n2cnc3c(NCCOC)nc(-c4cncc(Cl)c4)nc32)[C@H](O)[C@@H]1O [compound 288, (2S,3S,4R,5R)-5-(2-(5-chloropyridin-3-yl)-6-((2-methoxyethyl)amino)-9H-purin-9-yl)-3,4-dihydroxyl-N-(methyl-d3)-tetrahydrofuran-2-carboxamide] | 118.00 kg·ng·h/mL/mg
26 | [2H]C([2H])([2H])NC(=O)[C@H]1O[C@@H](n2cnc3c(NCc4cc(C)ccc4F)nc(-c4cncc(Cl)c4)nc32)[C@H](O)[C@@H]1O [compound 225, (2S,3S,4R,5R)-5-(2-(5-chloropyridin-3-yl)-6-((2-fluoro-5-methylbenzyl)amino)-9H-purin-9-yl)-3,4-dihydroxyl-N-(methyl-d3)-tetrahydrofuran-2-carboxamide] | 11356.86 kg·ng·h/mL/mg
